Measurements reported in the supplement of paper PMC10307832.

Columns and labels:
Assay in all cases: relative viability (nuclei count vs DMSO), 5 days (fraction); higher = more cells survive
EHT 1864 + Pemetrexed = compound: C1COCCN1CC2=CC(=O)C(=CO2)OCCCCCSC3=C4C=CC(=CC4=NC=C3)C(F)(F)F [EHT 1864] + Nc1nc2[nH]cc(CCc3ccc(C(=O)N[C@@H](CCC(=O)O)C(=O)O)cc3)c2c(=O)[nH]1 [Pemetrexed] (partner 0.2 µM)
How it was run: (§1)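 Nuclei were stained with Hoechst during a one-step fixation (final 0.05% Triton X-100, 1% formaldehyde, 1 ug/ml Hoechst) carried out 5 days after dosing, then counted on 4× images. The cells, lung cancer lines in 1536-well plates, had been dosed by pin tool the day after seeding with one drug alone or a fixed anchor-drug dose plus five library-drug doses (not always all listed) in √10 steps. Relative viability is the nuclei count in treated wells divided by that in vehicle wells, and each value is the median of duplicate plates.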

EHT 1864 + Lapatinib = compound: C1COCCN1CC2=CC(=O)C(=CO2)OCCCCCSC3=C4C=CC(=CC4=NC=C3)C(F)(F)F [EHT 1864] + CS(=O)(=O)CCNCc1ccc(-c2ccc3ncnc(Nc4ccc(OCc5cccc(F)c5)c(Cl)c4)c3c2)o1 [Lapatinib] (partner 2 µM)
How it was run: as §1

EHT 1864 + Dasatinib = compound: C1COCCN1CC2=CC(=O)C(=CO2)OCCCCCSC3=C4C=CC(=CC4=NC=C3)C(F)(F)F [EHT 1864] + Cc1nc(Nc2ncc(C(=O)Nc3c(C)cccc3Cl)s2)cc(N2CCN(CCO)CC2)n1 [Dasatinib] (partner 0.075 µM)
How it was run: as §1

EHT 1864 + Crizotinib = compound: C1COCCN1CC2=CC(=O)C(=CO2)OCCCCCSC3=C4C=CC(=CC4=NC=C3)C(F)(F)F [EHT 1864] + C[C@@H](Oc1cc(-c2cnn(C3CCNCC3)c2)cnc1N)c1c(Cl)ccc(F)c1Cl [Crizotinib] (partner 1 µM)
How it was run: as §1

Cell Line | relative viability (EHT 1864 + Pemetrexed; first compound 0.04 µM) | relative viability (EHT 1864 + Pemetrexed; first compound 0.1265 µM) | relative viability (EHT 1864 + Pemetrexed; first compound 0.4 µM) | relative viability (EHT 1864 + Pemetrexed; first compound 1.265 µM) | relative viability (EHT 1864 + Pemetrexed; first compound 4 µM) | relative viability (EHT 1864 + Lapatinib; first compound 0.04 µM) | relative viability (EHT 1864 + Lapatinib; first compound 0.1265 µM) | relative viability (EHT 1864 + Lapatinib; first compound 0.4 µM) | relative viability (EHT 1864 + Lapatinib; first compound 1.265 µM) | relative viability (EHT 1864 + Lapatinib; first compound 4 µM) | relative viability (EHT 1864 + Dasatinib; first compound 0.04 µM) | relative viability (EHT 1864 + Dasatinib; first compound 0.1265 µM) | relative viability (EHT 1864 + Dasatinib; first compound 0.4 µM) | relative viability (EHT 1864 + Dasatinib; first compound 1.265 µM) | relative viability (EHT 1864 + Dasatinib; first compound 4 µM) | relative viability (EHT 1864 + Crizotinib; first compound 0.04 µM) | relative viability (EHT 1864 + Crizotinib; first compound 0.1265 µM) | relative viability (EHT 1864 + Crizotinib; first compound 0.4 µM) | relative viability (EHT 1864 + Crizotinib; first compound 1.265 µM) | relative viability (EHT 1864 + Crizotinib; first compound 4 µM)
COR-L 105 | 1.03 | 1.06 | 0.966 | 1.01 | 0.984 | 0.345 | 0.374 | 0.338 | 0.38 | 0.334 | 0.415 | 0.314 | 0.34 | 0.334 | 0.396 | 0.614 | 0.732 | 1.05 | 0.774 | 0.74
NCI-H2126 | 0.707 | 0.603 | 0.661 | 0.726 | 0.633 | 0.779 | 0.723 | 0.759 | 0.798 | 0.697 | 0.604 | 0.574 | 0.649 | 0.484 | 0.545 | 1.01 | 0.938 | 0.998 | 0.992 | 0.988
NCI-H460 |  | 0.0604 | 0.0667 | 0.0607 | 0.0677 | 0.891 | 0.897 | 0.975 | 0.845 | 0.885 | 0.516 | 0.405 | 0.565 | 0.532 | 0.54 | 0.805 | 0.85 | 0.769 | 0.888 | 0.799
SK-LU-1 | 0.982 | 0.935 | 1.03 | 0.872 | 0.901 | 0.91 | 0.65 | 0.795 | 0.878 | 0.781 | 0.186 | 0.171 | 0.174 | 0.174 | 0.164 | 0.982 | 0.865 | 0.927 | 0.911 | 0.737
NCI-H322M | 0.606 | 0.64 | 0.596 | 0.678 | 0.604 | 0.613 | 0.527 | 0.634 | 0.522 | 0.629 | 0.256 | 0.24 | 0.283 | 0.23 | 0.234 | 0.927 | 0.837 | 0.849 | 0.995 | 1.05
EKVX | 0.362 | 0.381 | 0.404 | 0.34 | 0.495 | 0.238 | 0.216 | 0.205 | 0.207 | 0.21 | 0.631 | 0.436 | 0.536 | 0.51 | 0.58 | 1.05 | 0.721 | 0.857 | 0.947 | 0.855
NCI-H1734 | 0.45 | 0.385 | 0.463 | 0.394 | 0.432 | 1.08 | 0.86 | 1.09 | 1.01 | 1.12 | 0.497 |  | 0.523 | 0.528 | 0.502 | 0.67 | 0.626 | 0.632 | 0.723 | 0.721
NCI-H520 | 0.67 | 0.588 | 0.758 | 0.627 | 0.604 | 0.833 | 0.743 | 0.834 | 0.913 | 0.694 | 0.218 | 0.171 | 0.205 | 0.211 | 0.192 | 0.657 | 0.599 | 0.642 | 0.733 | 0.804
EPLC-272H | 0.317 | 0.332 | 0.317 | 0.365 | 0.356 | 1.06 | 0.624 | 1.12 | 0.88 | 0.801 | 0.359 | 0.327 | 0.395 | 0.452 | 0.275 | 0.928 | 0.861 | 0.855 | 0.915 | 1.01
UMC-11 | 0.763 | 0.706 | 0.843 | 0.764 | 0.888 | 0.724 |  | 1.05 | 0.938 | 0.987 | 0.462 | 0.449 |  | 0.441 | 0.458 | 0.611 | 0.537 | 0.568 | 0.607 | 0.507
NCI-H1792 | 0.804 |  | 0.735 | 0.776 | 1.1 | 0.864 | 0.777 | 0.926 | 0.882 | 0.928 | 0.755 | 0.778 | 0.714 | 0.73 | 0.894 | 0.982 | 0.852 | 0.972 | 0.895 | 1.04
NCI-H1993 | 0.58 |  | 0.595 | 0.623 | 0.556 | 0.918 | 0.812 | 0.806 | 0.864 | 0.858 | 0.841 |  | 0.498 | 0.613 | 0.639 | 0.882 | 0.78 | 0.751 | 0.817 | 0.958
NCI-H596 | 0.554 | 0.513 | 0.447 | 0.575 | 0.468 | 1.16 | 0.968 | 1.12 | 1.01 | 1.09 | 0.701 | 0.592 | 0.533 | 0.554 | 0.664 | 1.02 | 1.04 | 0.931 | 0.896 | 0.973
